Results from US20230027929A1, “MrgprX2 Antagonists and Uses Thereof” (Dermira, Inc., priority 2019, published 2023).

What follows are molecules tested against T1, hMrgpMRGPRX2 (Homo sapiens, UniProt Q96LB1) (assay: FLIPR intracellular calcium mobilization, antagonist activity in recombinant hMrgpMRGPRX2 expressing cells). Settings: read-out: Human MrgprX2 Antagonist pIC50 (converted).
T1 construct: expressed in transfected cells
T1 sequence (Q96LB1 1-330): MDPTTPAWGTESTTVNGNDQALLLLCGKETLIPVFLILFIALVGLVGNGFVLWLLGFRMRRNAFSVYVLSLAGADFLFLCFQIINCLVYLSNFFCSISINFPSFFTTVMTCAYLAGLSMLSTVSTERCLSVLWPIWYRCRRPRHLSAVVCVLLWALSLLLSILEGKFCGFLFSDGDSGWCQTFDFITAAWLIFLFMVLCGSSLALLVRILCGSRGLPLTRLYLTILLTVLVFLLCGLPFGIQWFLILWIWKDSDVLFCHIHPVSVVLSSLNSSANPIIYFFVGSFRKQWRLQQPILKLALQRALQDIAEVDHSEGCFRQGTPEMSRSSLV
Assay type: cell-based
From the text: Potent and selective hMrgpMRGPRX2 compounds have been generated from compounds identified during a high throughput screening (HTS) campaign and followed up with cycles of structure activity based medicinal chemistry efforts. These compounds were characterized in recombinant hMrgpMRGPRX2 expressing cells for their antagonist activity and the potency was confirmed in the human mast cell line LAD-2, where the target is endogenously expressed. The assays used to determine potencies are functional read-out looking at intracellular calcium mobilization using the FLIPR™ technology. In these FLIPR assays, we test the identified compounds using recombinant cellular systems expressing mouse MrgprB2, mouse MrgprA1, gerbil MrgpMRGPRX2 orthologue, Chinese hamster MrgpMRGPRX2 orthologue and cynomolgus monkey MrgpMRGPRX2 orthologue, respectively for orthologue activity.
Work on `CN(C[C@@](C)(O)C(F)(F)F)C(=O)Nc1ccc(Oc2ccc(F)c(F)c2)cn1` [Compound E139, 3-[5-(3,4-difluorophenoxy)-2-pyridyl]-1-methyl-1-[(2R)-3,3,3-trifluoro-2-hydroxy-2-methyl-propyl]urea] yielded an IC50 of 15.1 nM.
For `CN(C[C@@](C)(O)C(F)(F)F)C(=O)Nc1ccc(Oc2cc(F)cc(F)c2)cn1` [Compound E140, 3-[5-(3,5-difluorophenoxy)-2-pyridyl]-1-methyl-1-[(2R)-3,3,3-trifluoro-2-hydroxy-2-methyl-propyl]urea], the IC50 was 1.58 nM.
Work on `CN(C[C@@](C)(O)C(F)(F)F)C(=O)Nc1ccc(Oc2ccc(F)cc2F)cn1` [Compound E141, 3-[5-(2,4-difluorophenoxy)-2-pyridyl]-1-methyl-1-[(2R)-3,3,3-trifluoro-2-hydroxy-2-methyl-propyl]urea] yielded an IC50 of 2.04 nM.
`CCN(C[C@@H](O)C(F)(F)F)C(=O)Nc1ccc(-n2cccn2)cn1` [Compound E142, 1-ethyl-3-(5-pyrazol-1-yl-2-pyridyl)-1-[(2R)-3,3,3-trifluoro-2-hydroxy-propyl]urea] showed an IC50 of 8710 nM.
Molecule `CC(C)C(=O)Nc1cc(Oc2cc(F)cc(F)c2)ccn1` [Compound E143, N-[4-(3,5-difluorophenoxy)-2-pyridyl]-2-methyl-propanamide] has an IC50 of 200 nM.
`O=C(Nc1cc(Oc2cc(F)cc(F)c2)ccn1)C1CC1` [Compound E144, N-[4-(3,5-difluorophenoxy)-2-pyridyl]cyclopropanecarboxamide] showed an IC50 of 1000 nM.
Work on `CC(C)C(=O)Nc1cc(Oc2ccccc2)ccn1` [Compound E145, 2-methyl-N-(4-phenoxy-2-pyridyl)propanamide] yielded an IC50 of 794 nM.
With `CC1(C)C(C(=O)Nc2cc(N3CCCC3)ccn2)C1(C)C` [Compound E146, 2,2,3,3-tetramethyl-N-(4-pyrrolidin-1-yl-2-pyridyl)cyclopropanecarboxamide] the IC50 was 7940 nM.
`CC1(C)C(C(=O)Nc2cc(Oc3cncc(F)c3)ccn2)C1(C)C` [Compound E147, N-[4-[(5-fluoro-3-pyridyl)oxy]-2-pyridyl]-2,2,3,3-tetramethyl-cyclopropanecarboxamide] showed an IC50 of 7.94 nM.
`CC1(C)C(C(=O)Nc2cc(Oc3ccc(F)nc3)ccn2)C1(C)C` [Compound E148, N-[4-[(6-fluoro-3-pyridyl)oxy]-2-pyridyl]-2,2,3,3-tetramethyl-cyclopropanecarboxamide] gave an IC50 of 30.2 nM.
`CC1(C)C(C(=O)Nc2cc(OCC(F)(F)F)ccn2)C1(C)C` [Compound E149, 2,2,3,3-tetramethyl-N-[4-(2,2,2-trifluoroethoxy)-2-pyridyl]cyclopropanecarboxamide] showed an IC50 of 2000 nM.
Work on `CCN(C[C@@H](O)C(F)(F)F)C(=O)Nc1cc(Oc2ccc(F)c(F)c2)ccn1` [Compound E150, 3-[4-(3,4-difluorophenoxy)-2-pyridyl]-1-ethyl-1-[(2R)-3,3,3-trifluoro-2-hydroxy-propyl]urea] yielded an IC50 of 3.47 nM.
For `CCN(C[C@@H](O)C(F)(F)F)C(=O)Nc1cc(Oc2ccccc2F)ccn1` [Compound E151], the IC50 was 3.63 nM.
`CN(C[C@@H](O)C(F)(F)F)C(=O)Nc1cc(Oc2ccc(F)c(F)c2)ccn1` [Compound E152] was tested, and the IC50 was 263 nM.
For `Cc1cnc(NC(=O)N(C)C[C@@H](O)C(F)(F)F)cc1Oc1ccc(F)c(F)c1` [Compound E153], the IC50 was 245 nM.
With `CCN(C[C@@H](O)C(F)(F)F)C(=O)Nc1cc(Oc2cccc(F)c2)ccn1` [Compound E154] the IC50 was 1.29 nM.
`CCN(C[C@@H](O)C(F)(F)F)C(=O)Nc1cc(Oc2ccc(F)cc2)ccn1` [Compound E155] showed an IC50 of 25.1 nM.
With `CCN(C[C@@H](O)C(F)(F)F)C(=O)Nc1cc(Oc2cccc(C#N)c2)ccn1` [Compound E156] the IC50 was 1550 nM.
`CCN(C[C@@H](O)C(F)(F)F)C(=O)Nc1cc(Oc2ccc(C#N)cc2)ccn1` [Compound E157] showed an IC50 of 1580 nM.
Work on `CCN(C[C@@H](O)C(F)(F)F)C(=O)Nc1cc(Oc2ccccc2C#N)ccn1` [Compound E158] yielded an IC50 of 17.8 nM.
With `CCN(C[C@@H](O)C(F)(F)F)C(=O)Nc1cc(Oc2ccc(F)cc2F)ccn1` [Compound E159] the IC50 was 14.1 nM.
